Experimental data: EPA's ToxRefDB 2

Key:
primate [1] = conditions: Sub-acute repeat dose toxicity, Oral, Gavage/Intubation, dose end: 14 day, group: systemic
rat [2] = conditions: Sub-acute repeat dose toxicity, Oral, Gavage/Intubation, dose end: 7 day, group: systemic
primate [3] = conditions: Sub-acute repeat dose toxicity, Oral, Gavage/Intubation, dose end: 7 day, group: systemic
rat [4] = conditions: Sub-acute repeat dose toxicity, sprague dawley, Oral, Gavage/Intubation, dose end: 14 day, group: systemic
rat [5] = conditions: Subchronic oral toxicity in rodents, sprague dawley, Gavage/Intubation, dose end: 92 day, group: systemic, systemic / pathology microscopic / stomach / thickened
rat [6] = conditions: Subchronic oral toxicity in rodents, sprague dawley, Feed, dose end: 13 week, group: systemic
dog [7] = conditions: Subchronic oral toxicity in nonrodent, beagle, Feed, dose end: 90 day, group: systemic
rat [8] = conditions: Subchronic oral toxicity in rodents, sprague dawley, Gavage/Intubation, dose end: 90 day, group: systemic, systemic / pathology microscopic / stomach / hyperkeratosis + systemic / pathology microscopic / stomach / hyperplasia
rat [9] = conditions: Prenatal developmental toxicity study, sprague dawley, Oral, Gavage/Intubation, dose end: 16 GD
rat [10] = conditions: Carcinogenicity, wistar, Oral, Feed, dose end: 24 month, group: systemic
rabbit = conditions: Prenatal developmental toxicity study, himalayan, Oral, Gavage/Intubation, dose end: 28 GD
mouse [11] = conditions: Carcinogenicity, other, Oral, Feed, dose end: 18 month, group: systemic
rat [12] = conditions: Multigenerational reproductive toxicity study, wistar, Oral, Feed, dose end: 2 generation
dog [13] = conditions: Chronic toxicity, beagle, Oral, Feed, dose end: 52 week, group: systemic
dog [14] = conditions: Subchronic oral toxicity in nonrodent, beagle, Feed, dose end: 90 day, group: systemic; remark: listed apart in the source
rat [15] = conditions: Subchronic oral toxicity in rodents, wistar, Feed, dose end: 90 day, group: systemic, systemic / organ weight / thyroid gland / absolute + systemic / organ weight / thyroid gland / relative to body weight + systemic / …
rat [16] = conditions: Chronic toxicity, wistar, Oral, Feed, dose end: 104 week, group: systemic
mouse [17] = conditions: Subchronic oral toxicity in rodents, other, Feed, dose end: 90 day, group: systemic
rat [18] = conditions: Prenatal developmental toxicity study, sprague dawley, Oral, Gavage/Intubation, dose end: 15 GD
rat [19] = conditions: Prenatal developmental toxicity study; sprague dawley; Oral; Gavage/Intubation; dose end: 15 GD; group: maternal; systemic / in life observation / clinical signs / post-dosing rooting in bedding + systemic / in life observation / food consumption / food …
[20] = systemic / in life observation / body weight / body weight
[21] = systemic / in life observation / body weight / body weight + systemic / clinical chemistry / chloride / chloride + systemic / clinical …
[22] = systemic / in life observation / mortality / mortality + systemic / pathology microscopic / stomach / degeneration + systemic / clinical …
[23] = systemic / clinical chemistry / phosphorus / phosphorus + systemic / clinical chemistry / sodium / sodium + systemic / clinical chemistry / …
[24] = systemic / pathology microscopic / vagina / prolapse + systemic / in life observation / clinical signs / vomitting + systemic / in life …
[25] = systemic / clinical chemistry / albumin / albumin + systemic / clinical chemistry / globulins / globulins + systemic / pathology microscopic…
[26] = systemic / in life observation / body weight / body weight + systemic / in life observation / food consumption / food efficiency + systemic…
[27] = systemic / in life observation / body weight / body weight + systemic / in life observation / food consumption / food consumption + systemic…
[28] = group: developmental, developmental / developmental malformation / bone / incomplete ossification + developmental / developmental malformation / bone / unossified…
[29] = group: maternal, systemic / in life observation / body weight / body weight gain + systemic / in life observation / food consumption / food consumption + …
[30] = group: developmental, developmental / developmental malformation / bone / incomplete ossification
[31] = group: maternal, reproductive / reproductive performance / aborted / aborted + reproductive / reproductive performance / premature delivery / premature …
[32] = systemic / in life observation / body weight / body weight + systemic / organ weight / liver / absolute + systemic / organ weight / liver / …
[33] = group: offspring, systemic / in life observation / body weight / offspring (pup) weight + systemic / in life observation / body weight / offspring (pup) …
[34] = group: offspring, systemic / organ weight / thymus / absolute
[35] = group: parental, systemic / pathology microscopic / liver / degeneration + systemic / pathology microscopic / liver / hypertrophy
[36] = group: reproductive, reproductive / reproductive performance / implantations / implantations
[37] = systemic / clinical chemistry / alkaline phosphatase (alp/alk) / alkaline phosphatase (alp/alk) + systemic / organ weight / liver / absolute…
[38] = systemic / hematology / blood clotting / blood clotting - prothrombin time
[39] = systemic / clinical chemistry / alanine aminotransferase (alt/sgpt) / alanine aminotransferase (alt/sgpt) + systemic / clinical chemistry / …
[40] = systemic / organ weight / thyroid gland / absolute + systemic / pathology microscopic / thyroid gland / hyperplasia + systemic / pathology …
[41] = systemic / organ weight / liver / absolute
[42] = systemic / organ weight / liver / absolute + systemic / organ weight / liver / relative to body weight + systemic / pathology microscopic / …
[43] = group: developmental, developmental / developmental malformation / bone / [other]
[44] = group: maternal, systemic / in life observation / body weight / body weight + systemic / in life observation / clinical signs / [other] + systemic / in life …

For `CCn1nc(C)c2c1C(=O)NCC(c1ccc(O)cc1)=N2`, the LEL (primate [1]; [20]) was 5 mg/kg/day, the NEL (primate [1]; [20]) was less than 5 mg/kg/day and the LOAEL (primate [1]; [21]) was greater than 20 mg/kg/day. For the same molecule, the NOAEL (primate [1]; [21]) was no less than 20 mg/kg/day, the LOAEL (rat [2]; [22]) was greater than 300 mg/kg/day and the NOAEL (rat [2]; [22]) was no less than 300 mg/kg/day. For the same molecule, the LEL (rat [2]; systemic / pathology microscopic / heart / fibrosis + systemic / pathology microscopic / heart / hemorrhage + systemic / pathology …) was 80 mg/kg/day, the LOAEL (primate [3]; [23]) was greater than 50 mg/kg/day and the NOAEL (primate [3]; [23]) was no less than 50 mg/kg/day. It also gave an LEL (primate [3]; [24]) of 10 mg/kg/day, an NEL (primate [3]; [24]) of less than 10 mg/kg/day and an LOAEL (rat [4]; [25]) greater than 80 mg/kg/day. It also gave an NOAEL (rat [4]; [25]) of no less than 80 mg/kg/day, an NEL (rat [4]; systemic / organ weight / testes / absolute + systemic / pathology microscopic / blood vessel / inflammation + systemic / pathology …) of 20 mg/kg/day and an LEL (rat [4]; systemic / organ weight / testes / absolute + systemic / pathology microscopic / heart / necrosis + systemic / pathology microscopic / …) of 40 mg/kg/day.
With `O=c1[nH]sc2ccccc12` [1,2-Benzisothiazolin-3-one] the LEL (rat [5]) was 10 mg/kg/day, the LOAEL (rat [5]) was 10 mg/kg/day and the NEL (rat [5]) was less than 10 mg/kg/day. It also gave an NOAEL (rat [5]) of less than 10 mg/kg/day, an LEL (rat [6]; [20]) of 69 mg/kg/day and an LOAEL (rat [6]; [20]) of 69 mg/kg/day. It also gave an NEL (rat [6]; [26]) of 15.3 mg/kg/day, an NOAEL (rat [6]; [26]) of 15.3 mg/kg/day and an LOAEL (dog [7]; systemic / in life observation / body weight / body weight + systemic / in life observation / food consumption / food consumption) of 89 mg/kg/day. The LEL (dog [7]; [27]) was 89 mg/kg/day, the NEL (dog [7]; [27]) was 38 mg/kg/day and the NOAEL (dog [7]; [27]) was 38 mg/kg/day. For the same molecule, the LEL (rat [8]) was 10 mg/kg/day, the LOAEL (rat [8]) was greater than 10 mg/kg/day and the NOAEL (rat [8]) was no less than 10 mg/kg/day. For the same molecule, the LOAEL (rat [9]; [28]) was 100 mg/kg/day, the NEL (rat [9]; [28]) was 10 mg/kg/day and the NOAEL (rat [9]; [28]) was 40 mg/kg/day. For the same molecule, the LEL (rat [9]; group: developmental, developmental / developmental malformation / bone / unossified) was 40 mg/kg/day, the LOAEL (rat [9]; group: maternal, systemic / in life observation / body weight / body weight gain + systemic / in life observation / food consumption / food consumption) was 100 mg/kg/day and the NEL (rat [9]; [29]) was 10 mg/kg/day. The NOAEL (rat [9]; [29]) was 40 mg/kg/day and the LEL (rat [9]; group: maternal, systemic / in life observation / clinical signs / abnormal respiratory sounds) was 40 mg/kg/day.
`O=C(Nc1ccccc1-c1ccc(Cl)cc1)c1cccnc1Cl` [Boscalid] showed an NEL (rat [10]; systemic / in life observation / mortality / mortality + systemic / in life observation / body weight / body weight + systemic / in life …) of 1020 mg/kg/day, an LOAEL (rat [10]; systemic / pathology microscopic / thyroid gland / hyperplasia + systemic / pathology microscopic / thyroid gland / hypertrophy) of 116 mg/kg/day and an NOAEL (rat [10]; systemic / pathology microscopic / thyroid gland / hyperplasia + systemic / pathology microscopic / thyroid gland / hypertrophy + systemic…) of 23 mg/kg/day. The LEL (rabbit; [30]) was 1000 mg/kg/day, the LOAEL (rabbit; [30]) was greater than 1000 mg/kg/day and the NEL (rabbit; [30]) was 300 mg/kg/day. The NOAEL (rabbit; [30]) was no less than 1000 mg/kg/day, the LEL (rabbit; [31]) was 1000 mg/kg/day and the LOAEL (rabbit; [31]) was 1000 mg/kg/day. The NEL (rabbit; [31]) was 300 mg/kg/day, the NOAEL (rabbit; [31]) was 300 mg/kg/day and the LOAEL (mouse [11]; [20]) was 331 mg/kg/day. The NEL (mouse [11]; [32]) was 13 mg/kg/day, the NOAEL (mouse [11]; [32]) was 65 mg/kg/day and the LEL (mouse [11]; systemic / in life observation / body weight / body weight + systemic / organ weight / liver / relative to body weight) was 65 mg/kg/day. The LOAEL (rat [12]; [33]) was 124 mg/kg/day, the NOAEL (rat [12]; [33]) was 12.3 mg/kg/day and the LEL (rat [12]; [34]) was 12.3 mg/kg/day. For the same molecule, the NEL (rat [12]; [34]) was less than 12.3 mg/kg/day, the LOAEL (rat [12]; group: parental, systemic / pathology microscopic / liver / degeneration) was 1030 mg/kg/day and the NEL (rat [12]; [35]) was 10.1 mg/kg/day. The NOAEL (rat [12]; [35]) was 101 mg/kg/day, the LEL (rat [12]; group: parental, systemic / pathology microscopic / liver / hypertrophy) was 101 mg/kg/day and the LEL (rat [12]; [36]) was 10.7 mg/kg/day. The LOAEL (rat [12]; [36]) was greater than 1060 mg/kg/day, the NEL (rat [12]; [36]) was less than 10.7 mg/kg/day and the NOAEL (rat [12]; [36]) was no less than 1060 mg/kg/day. For the same molecule, the LOAEL (dog [13]; systemic / clinical chemistry / alkaline phosphatase (alp/alk) / alkaline phosphatase (alp/alk) + systemic / organ weight / liver / absolute) was 57.4 mg/kg/day, the LEL (dog [13]; [37]) was 57.4 mg/kg/day and the NEL (dog [13]; [37]) was 21.8 mg/kg/day. The NOAEL (dog [13]; [37]) was 21.8 mg/kg/day, the LOAEL (dog [14]; [37]) was 78.1 mg/kg/day and the NOAEL (dog [14]; [37]) was 7.6 mg/kg/day. For the same molecule, the LEL (dog [14]; [38]) was 8.1 mg/kg/day, the NEL (dog [14]; [38]) was less than 8.1 mg/kg/day and the LEL (rat [15]) was 137 mg/kg/day. For the same molecule, the LOAEL (rat [15]) was 137 mg/kg/day, the NEL (rat [15]) was 34 mg/kg/day and the NOAEL (rat [15]) was 34 mg/kg/day. For the same molecule, the LEL (rat [16]; [39]) was 5.9 mg/kg/day, the NEL (rat [16]; [39]) was less than 5.9 mg/kg/day and the LOAEL (rat [16]; [40]) was 110 mg/kg/day. For the same molecule, the NOAEL (rat [16]; [40]) was 21.9 mg/kg/day, the LEL (mouse [17]; [41]) was 42 mg/kg/day and the NEL (mouse [17]; [41]) was less than 42 mg/kg/day. For the same molecule, the LOAEL (mouse [17]; [42]) was 788 mg/kg/day and the NOAEL (mouse [17]; [42]) was 197 mg/kg/day.
Work on `CSc1nc(NC2CC2)nc(NC(C)(C)C)n1` [Cybutryne] yielded an LEL (rat [18]; [43]) of 300 mg/kg/day, an LOAEL (rat [18]; [43]) greater than 300 mg/kg/day and an NEL (rat [18]; [43]) of 150 mg/kg/day. For the same molecule, the NOAEL (rat [18]; [43]) was no less than 300 mg/kg/day, the LOAEL (rat [18]; group: maternal, systemic / in life observation / body weight / body weight + systemic / in life observation / body weight / body weight gain) was 300 mg/kg/day and the LEL (rat [18]; group: maternal, systemic / in life observation / body weight / body weight + systemic / in life observation / clinical signs / [other]) was 150 mg/kg/day. The NEL (rat [18]; [44]) was 50 mg/kg/day, the NOAEL (rat [18]; [44]) was 150 mg/kg/day and the LEL (rat [19]) was 150 mg/kg/day. It also gave an LOAEL (rat [19]) of 150 mg/kg/day, an NEL (rat [19]) of 50 mg/kg/day and an NOAEL (rat [19]) of 50 mg/kg/day.
